Source: patent US20230096517A1, “GLUTARIMIDE SKELETON-BASED COMPOUNDS AND APPLICATION THEREOF” (SHANGHAITECH UNIVERSITY, priority 2020, published 2023)

system: MM.1S cells; assay: Proliferation inhibition (IC50) in multiple myeloma cells, cell viability with WST/CCK-8 reagent; conditions: Homo sapiens, MM1.S, 72 h, read-out: IC50 (half inhibitory concentration);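 note: MM.1S B-lymphoblast cells at 15,000 per well in 100 µL serum-containing RPMI1640, experiment run more than three times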
Description: Multiple myeloma cell line: MM.1S (B lymphoblast), purchased from ATCC (American Type Culture Collection). Culture medium was RPMI1640 supplemented with 10% FBS and 1% Penicillin-Streptomycin. The cells used were identified as correct cells by STR cells and negative for mycoplasma by routine inspections.
IC50 values of the compounds of the present disclosure were measured using Cell Titer Blue, Cell Titer GLO, or WST reagent from Promega Company. Assay details are as follows: Cells were seeded in 100 μL RPMI1640 complete medium containing serum at a density of 15,000 cells/well.
The experiment was repeated more than three times.

In order of falling IC50:
1. O=C1CCC(N2C(=O)c3ccc(NCCCCCCNC45CC6CC(CC(C6)C4)C5)cc3C2=O)C(=O)N1 (centres unmarked) [SIAIS1242067, 5-((6-((adamantan-1-yl)amino)hexyl)amino)-2-(2,6-dioxopiperidin-3-yl)isoindoline-1,3-dione]  17.7 nM
2. Nc1cccc2c1C(=O)N(C1CCC(=O)NC1=O)C2=O (centres unmarked) [pomalidomide, reference compound]  9.4 ± 1.3 nM
3. CC(NCCCCCCCNc1cccc2c1C(=O)N(C1CCC(=O)NC1=O)C2=O)C12CC3CC(CC(C3)C1)C2 (centres unmarked) [SIAIS1222193]  2.69 nM
4. O=C1CCC(N2Cc3c(NCCCCCCCNC45CC6CC(CC4C6)C5)cccc3C2=O)C(=O)N1 (centres unmarked) [SIAIS1242071, 3-(4-((7-((hexahydro-2,5-methanopentalen-3a(1H)-yl)amino)heptyl)amino)-1-oxoisoindolin-2-yl)piperidine-2,6-dione]  2.46 nM
5. O=C1CCC(N2C(=O)c3ccc(NCCCCCNC45CC6CC(CC(C6)C4)C5)cc3C2=O)C(=O)N1 (centres unmarked) [SIAIS1242069, 5-((5-((adamantan-1-yl)amino)pentyl)amino)-2-(2,6-dioxopiperidin-3-yl)isoindoline-1,3-dione]  2.27 nM
6. CC(NCCCCCCNc1cccc2c1C(=O)N(C1CCC(=O)NC1=O)C2=O)C12CC3CC(CC(C3)C1)C2 (centres unmarked) [SIAIS1222191, 4-((6-((1-(adamantan-1-yl)ethyl)amino)hexyl)amino)-2-(2,6-dioxopiperidin-3-yl)isoindoline-1,3-dione]  2.22 nM
7. O=C1CCC(N2C(=O)c3cccc(OCc4ccc(CCNC56CC7CC(CC(C7)C5)C6)cc4)c3C2=O)C(=O)N1 (centres unmarked) [SIAIS1241167, 4-((4-(2-((adamantan-1-yl)amino)ethyl)benzyl)oxy)-2-(2,6-dioxopiperidin-3-yl)isoindoline-1,3-dione]  1.95 nM
8. O=C1CCC(N2Cc3c(NCc4ccc(CCCNC56CC7CC(CC(C7)C5)C6)cc4)cccc3C2=O)C(=O)N1 (centres unmarked) [SIAIS1227077, 3-(4-((4-(3-((adamantan-1-yl)amino)propyl)benzyl)amino)-1-oxoisoindolin-2-yl)piperidine-2,6-dione]  1.93 ± 0.31 nM
9. O=C1CCC(N2Cc3c(CCCCCCCNC45CC6CC(CC(C6)C4)C5)cccc3C2=O)C(=O)N1 (centres unmarked) [SIAIS1224041, 3-(4-(7-((adamantan-1-yl)amino)heptyl)-1-oxoisoindolin-2-yl)piperidine-2,6-dione]  1.11 nM
10. O=C1CCC(N2Cc3c(OCCCCCCC(=O)NC45CC6CC(CC(C6)C4)C5)cccc3C2=O)C(=O)N1 (centres unmarked) [SIAIS1242075, N-(adamantan-1-yl)-7-((2-(2,6-dioxopiperidin-3-yl)-1-oxoisoindolin-4-yl)oxy)heptanamide]  0.877 nM
11. O=C1CCC(N2Cc3c(CCCCCCNC45CC6CC(CC(C6)C4)C5)cccc3C2=O)C(=O)N1 (centres unmarked) [SIAIS1224043, 3-(4-(6-((adamantan-1-yl)amino)hexyl)-1-oxoisoindolin-2-yl)piperidine-2,6-dione]  0.63 nM
12. O=C1CCC(N2Cc3c(OCCCCCCCNC4CC5(CCC5)C4)cccc3C2=O)C(=O)N1 (centres unmarked) [SIAIS1224013, 3-(1-oxo-4-((7-(spiro[3.3]heptan-2-ylamino)heptyl)oxy)isoindolin-2-yl)piperidine-2,6-dione]  0.534 nM
13. O=C1CCC(N2Cc3c(OCCCCCCCCNC45CC6CC(CC(C6)C4)C5)cccc3C2=O)C(=O)N1 (centres unmarked) [SIAIS1222167, 3-(4-((8-((adamantan-1-yl)amino)octyl)oxy)-1-oxoisoindolin-2-yl)piperidine-2,6-dione]  0.426 nM
14. O=C1CCC(N2C(=O)c3cccc(NCCCCCCCNC4CC5(CCC5)C4)c3C2=O)C(=O)N1 (centres unmarked) [SIAIS1222189, 2-(2,6-dioxopiperidin-3-yl)-4-((7-(spiro[3.3]heptan-2-ylamino)heptyl)amino)isoindoline-1,3-dione]  0.324 nM
15. O=C1CCC(N2Cc3c(NCc4ccc(CCNC56CC7CC(CC(C7)C5)C6)cc4)cccc3C2=O)C(=O)N1 (centres unmarked) [SIAIS1227027, 3-(4-((4-(2-((adamantan-1-yl)amino)ethyl)benzyl)amino)-1-oxoisoindolin-2-yl)piperidine-2,6-dione]  0.32 ± 0.09 nM
16. O=C1CCC(N2Cc3c(OCc4ccc(CNC56CC7CC(CC(C7)C5)C6)cc4)cccc3C2=O)C(=O)N1 (centres unmarked) [SIAIS1228157, 3-(4-((4-(((adamantan-1-yl)amino)methyl)benzyl)oxy)-1-oxoisoindolin-2-yl)piperidine-2,6-dione]  0.28 nM
17. O=C1CCC(N2Cc3c(C#CCCCCCCNC45CC6CC(CC4C6)C5)cccc3C2=O)C(=O)N1 (centres unmarked) [SIAIS1242057, 3-(4-(8-((hexahydro-2,5-methanopentalen-3a(1H)-yl)amino)oct-1-yn-1-yl)-1-oxoisoindolin-2-yl)piperidine-2,6-dione]  0.267 nM
18. O=C1CCC(N2C(=O)c3cccc(NCCCCCCC(=O)NC45CC6CC(CC(C6)C4)C5)c3C2=O)C(=O)N1 (centres unmarked) [SIAIS1242077, N-(adamantan-1-yl)-7-((2-(2,6-dioxopiperidin-3-yl)-1,3-dioxoisoindolin-4-yl)amino)heptanamide]  0.241 nM
19. O=C1CCC(N2Cc3c(OCc4ccc(CCNC56CC7CC(CC(C7)C5)C6)cc4)cccc3C2=O)C(=O)N1 (centres unmarked) [SIAIS1241169, 3-(4-((4-(2-((adamantan-1-yl)amino)ethyl)benzyl)oxy)-1-oxoisoindolin-2-yl)piperidine-2,6-dione]  0.123 nM
20. O=C1CCC(N2Cc3c(NCc4ccc(CCNC56CC7CC(CC5C7)C6)cc4)cccc3C2=O)C(=O)N1 (centres unmarked) [SIAIS1242061, 3-(4-((4-(2-((hexahydro-2,5-methanopentalen-3a(1H)-yl)amino)ethyl)benzyl)amino)-1-oxoisoindolin-2-yl)piperidine-2,6-dione]  0.107 nM
21. O=C1CCC(N2C(=O)c3cccc(NCCCCCCCNC45CC6CC(CC4C6)C5)c3C2=O)C(=O)N1 (centres unmarked) [SIAIS1242041, 2-(2,6-dioxopiperidin-3-yl)-4-((7-((hexahydro-2,5-methanopentalen-3a(1H)-yl)amino)heptyl)amino)isoindoline-1,3-dione]  0.076 nM
22. O=C1CCC(N2Cc3c(OCCCCCCCNC45CC6CC(CC4C6)C5)cccc3C2=O)C(=O)N1 (centres unmarked) [SIAIS1242043, 3-(4-((7-((hexahydro-2,5-methanopentalen-3a(1H)-yl)amino)heptyl)oxy)-1-oxoisoindolin-2-yl)piperidine-2,6-dione]  0.069 nM
23. CN(CCCCCCCOc1cccc2c1CN(C1CCC(=O)NC1=O)C2=O)C12CC3CC(CC(C3)C1)C2 (centres unmarked) [SIAIS1222181, 3-(4-((7-((adamantan-1-yl)(methyl)amino)heptyl)oxy)-1-oxoisoindolin-2-yl)piperidine-2,6-dione]  0.052 nM
